“Also recorded” adds a separate entry of the source.
Legend:
Format in all cases: biochemical
[1] = target: T1, GalNAc-T4 (Homo sapiens, UniProt Q8N4A0); experiment: Transferase assay / Michaelis-Menten kinetics of GalNAc-T4; conditions: for Activity of GalNAc-T4 on peptide / glycosylation: over a range of peptide concentrations, in words; for Activity of GalNAc-T4 on peptide / glycosylation / Catalytic efficiency (Vmax/Km): GalNAc-T4
T1 construct: amino acid residues 36–578 of the human GalNAc-T4; histidine tag (C); made in house; host or cells: Pichia pastoris SMD1168 (pPICZαA, secreted)
T1 sequence (Q8N4A0 36-578): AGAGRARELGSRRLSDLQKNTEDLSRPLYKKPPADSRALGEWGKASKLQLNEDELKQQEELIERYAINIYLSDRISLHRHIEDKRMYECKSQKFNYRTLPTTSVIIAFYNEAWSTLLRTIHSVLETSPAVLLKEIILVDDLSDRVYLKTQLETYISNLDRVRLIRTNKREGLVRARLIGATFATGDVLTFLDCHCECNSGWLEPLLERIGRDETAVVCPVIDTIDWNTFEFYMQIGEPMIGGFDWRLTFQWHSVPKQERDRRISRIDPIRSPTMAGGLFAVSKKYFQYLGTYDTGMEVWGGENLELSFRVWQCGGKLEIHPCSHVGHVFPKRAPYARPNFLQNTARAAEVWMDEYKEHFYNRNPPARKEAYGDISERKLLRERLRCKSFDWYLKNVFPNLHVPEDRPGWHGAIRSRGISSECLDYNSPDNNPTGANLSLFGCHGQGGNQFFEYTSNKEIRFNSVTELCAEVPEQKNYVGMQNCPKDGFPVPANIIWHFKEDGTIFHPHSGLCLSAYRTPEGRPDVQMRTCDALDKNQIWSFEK
Protocol: (§1) Specific activity determinations: GalNAc-T glycosylation reactions against (glyco)peptides 1–3 were performed with 75 mM sodium cacodylate, pH 6.5, 1 mM 2-mercaptoethanol, 10 mM MnCl2, 0.25 mM [^3H]-radiolabeled UDP-GalNAc (~6 × 10^8 DPM/µmole, American Radiolabeled Chemicals Inc.), and 1.4 mM (~1.25 mg/ml) of (glyco)peptide (from 4 mM stock in 1 mM TRIS, pH ~7) and varying concentrations (0.01 to 0.5 µM) of transferase (determined by OD280), giving a final reaction volumes of 20 µl in 100 µl capped Eppendorf tubes. Reactions were incubated at 37 °C in a thermostated microplate shaker (Taitec Microincubator M-36) and quenched at the appropriate reaction time by the addition of 20 µl of 250 mM EDTA and placed on ice prior to final workup. Typically, for each transferase, glycosylation reactions were performed at the same time with all three (glyco)peptide substrates (including a no peptide control) using the same batch of transferase and the same UDP-[^3H]-GalNAc stock. Before performing time course experiments, the relative activity of each transferase was determined by trial and error against all three peptides to determine the optimal transferase concentration or incubation time that gave no more than 10% peptide glycosylation against the best substrate. Final time course experiments typically consisted of incubation times of 10, 20, and 30, or 30, 60, and 90 or 120 min (depending on activity) and were performed at least twice. Most transferases were also characterized at two different enzyme concentrations (0.01–0.03 and 0.2–0.5 µM) and the results combined. After quenching the reaction and diluting to 4 ml, free UDP and non-hydrolyzed UDP-GalNAc were removed by passage over a Dowex 1 × 8 anion exchange resin (~3 ml column). Total UDP-[^3H]-GalNAc utilization (transfer to peptide substrate and transfer to water, i.e, hydrolysis) was determined by difference after scintillation counting (Beckman LS5801 scintillation counter) 1/20 of the sample before and after passage over Dowex 1 × 8. The extent of [^3H]-GalNAc transfer to peptide and the extent of hydrolysis was determined by Sephadex G10 gel filtration analysis, typically for the longest reaction time point, as previously described. Example gel filtration chromatograms are given in Supplementary Fig. 12. Significant hydrolysis was only observed for GalNAc-T4, which was corrected for in determining its specific activity. Specific activity was obtained by calculating at each individual data time point (of the combined time course plots, Fig. 4b), an individual-specific activity, which was then averaged to obtain the overall average specific activity (and standard deviation). Specific activity is reported as nmol of glycopeptide product formed per min, per pmol of enzyme. Substrate activity ratios (i.e., substrate ratios 2/1, 3/1, and 3/2) were also obtained at each individual time point and averaged (with standard deviation). […] Note that the Microsoft Excel least squares fitting function LINEST was used to obtain the linear plots shown in Fig. 4b while fixing the y intercept to zero. Note that the specific activity calculated from the least square slope differed slightly (less than 10%) from that determined from the average of the individual time points.
(§2) Detailed enzyme kinetics on GalNAc-T4, GalNAc-T2, the GalNAc-T2 triple mutant and GalNAc-T2 chimera 3: Glycosylation reactions were performed as described above using a fixed enzyme concentration (0.06 µM for GalNAc-T4, and 0.02 µM for GalNAc-T2 and its linker constructs) with varying peptide concentrations (typically 45, 90, 180, 350, 700, 1400, and 2000 μM). Incubation times (10–90 min) were chosen such that no more than 30% of the UDP-GalNAc donor was depleted while typically giving less than 10% peptide glycosylation, after correction for UDP-GalNAc hydrolysis described above. Specific activities were obtained from one to two individual incubation time points performed in two–three separate experiments. […]

[2] = target: T2, GalNAc-T2 (Homo sapiens, UniProt Q10471); experiment: Transferase assay / Michaelis-Menten kinetics of GalNAc-T2; conditions: for Vmax / Km: GalNAc-T2 (0.02 µM), pH 6.5 cacodylate, 37 °C, 0.25 mM UDP-[3H]-GalNAc, Michaelis-Menten fit (1/y weighting), ± standard deviation; for Vmax: 10 mM MnCl2, scintillation counting; for Catalytic efficiency (Vmax/Km): errors estimated from the largest percent error of Vmax or Km
T2 construct: the previous reported template pPICZαAgalnact2 (K75-Q571); made in house; host or cells: Pichia pastoris (pPICZαA)
T2 sequence (Q10471 75-571): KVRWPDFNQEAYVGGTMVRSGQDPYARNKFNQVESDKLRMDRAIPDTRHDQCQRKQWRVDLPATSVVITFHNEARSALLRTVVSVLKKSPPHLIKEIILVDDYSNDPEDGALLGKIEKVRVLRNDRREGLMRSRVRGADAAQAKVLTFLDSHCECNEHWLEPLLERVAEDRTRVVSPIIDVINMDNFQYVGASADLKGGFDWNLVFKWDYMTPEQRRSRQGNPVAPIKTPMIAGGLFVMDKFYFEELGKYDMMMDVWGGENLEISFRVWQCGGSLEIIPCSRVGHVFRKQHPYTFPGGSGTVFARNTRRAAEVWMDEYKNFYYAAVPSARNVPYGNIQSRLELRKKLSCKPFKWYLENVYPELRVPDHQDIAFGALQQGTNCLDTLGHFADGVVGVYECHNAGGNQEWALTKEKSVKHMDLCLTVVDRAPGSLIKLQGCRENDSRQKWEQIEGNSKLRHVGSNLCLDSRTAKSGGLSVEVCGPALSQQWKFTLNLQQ
Protocol: as §1, §2

[3] = target: T3, GalNAc-T2-t4Flexible linker (Chimera 3) (Homo sapiens, UniProt Q10471, A446W/D441E/D444P/E436N/F447H/H442D/I445G/Q443R/R438H); experiment: Transferase assay / Michaelis-Menten kinetics of GalNAc-T2 chimera 3; conditions: for Vmax / Km: Chimera 3 (0.02 µM), pH 6.5 cacodylate, 37 °C, 0.25 mM UDP-[3H]-GalNAc, Michaelis-Menten fit, ± standard deviation; for Vmax: 10 mM MnCl2; for Catalytic efficiency (Vmax/Km): Chimera 3, errors estimated from the largest percent error of Vmax or Km
T3 construct: made in house; host or cells: Pichia pastoris SMD1168 (pPICZαA)
T3 sequence (Q10471 75-571 E436N/R438H/D441E/H442D/Q443R/D444P/I445G/A446W/F447H): as the sequence (Q10471 75-571) above, with E362N, R364H, D367E, H368D, Q369R, D370P, I371G, A372W, F373H counted along it
Protocol: as §1, §2

[4] = target: T4, GalNAc-T2 (triple mutant, R438A-D444A-F447A) (Homo sapiens, UniProt Q10471, D444A/F447A/R438A); experiment: Transferase assay / Michaelis-Menten kinetics of GalNAc-T2 triple mutant; conditions: for Vmax / Km: Triple Mutant (0.02 µM), pH 6.5 cacodylate, 37 °C, 0.25 mM UDP-[3H]-GalNAc, Michaelis-Menten fit, ± standard deviation; for Vmax: 10 mM MnCl2; for Catalytic efficiency (Vmax/Km): Triple Mutant, errors estimated from the largest percent error of Vmax or Km
T4 construct: the previous reported template pPICZαAgalnact2 (K75-Q571); made in house; host or cells: Pichia pastoris SMD1168 (pPICZαA)
T4 sequence (Q10471 75-571 R438A/D444A/F447A): as the sequence (Q10471 75-571) above, with R364A, D370A, F373A counted along it
Protocol: as §1, §2

| Substance | Activity of GalNAc-T4 on peptide / glycosylation [1] | Vmax [2] | Km [2] [µM] | Catalytic efficiency (Vmax/Km) ([2]; GalNAc-T2) [nmol/min] | substrate preference of GalNAc-T2, higher substrate concentrations ([2]; in words) | Vmax [3] | Km [3] [µM] | Catalytic efficiency (Vmax/Km) [3] [nmol/min] | Vmax [4] | Km [4] [µM] | Catalytic efficiency (Vmax/Km) [4] [nmol/min] | other results |
| --- | --- | --- | --- | --- | --- | --- | --- | --- | --- | --- | --- | --- |
| AGAGTTPGPGAGAT*GA [Peptide 2, monoglycopeptide …*GA, T* denotes the Thr-O-GalNAc moiety] | imperceptibly glycosylated; also recorded: too low to determine their kinetic constants; also recorded: largely unglycosylated | 3.12 ± 0.07 mM/(nmole*min) | 180 ± 10 | 17.0 ± 2.3 | nearly equal preferences | 1.35 ± 0.11 mM/(nmole*min) | 700 ± 140 | 1.93 ± 0.8 | 1.80 ± 0.06 mM/(nmole*min) | 400 ± 40 | 4.54 ± 0.9 | increase in catalytic efficiency for monoglycopeptide 2 over monoglycopeptide 3 ([2]; GalNAc-T2, ratio 2 over 3): over threefold; Km of monoglycopeptide 2 compared to monoglycopeptide 3 ([2]; GalNAc-T2, ratio, in words): ~ fourfold lower; substrate preference of GalNAc-T2, low substrate concentrations ([2]; low substrate concentrations, in words): high preference for monoglycopeptide 2 at low substrate concentrations; change in kinetic parameters (Vmax, Km) ([3]; chimera 3, in words): changes in Vmax and Km; change in kinetic parameters against monoglycopeptide 2 ([4]; triple mutant, in words): decrease in Vmax and increase in Km |
| GAT*GAGAGAGTTPGPG [Peptide 3, monoglycopeptide GAT*…, T* denotes the Thr-O-GalNAc moiety] | glycosylated selectively | 3.79 ± 0.34 mM/(nmole*min) | 750 ± 130 | 5.03 ± 1.8 | nearly equal preferences | 3.69 ± 0.29 mM/(nmole*min) | 990 ± 160 | 3.73 ± 1.2 | 2.82 ± 0.10 mM/(nmole*min) | 570 ± 50 | 4.94 ± 0.9 | Catalytic efficiency (Vmax/Km) ([1]; Fig. 2a and text): ~ 75 (nmole min)^−1; Km ([1]; Fig. 2a and text, GalNAc-T4 (0.06 µM), Michaelis-Menten fit): ~40 µM; Vmax ([1]; Supplementary Table 2, GalNAc-T4 (0.06 µM), pH 6.5 cacodylate, 37 °C, 0.25 mM UDP-[3H]-GalNAc, 10 mM MnCl2, corrected for UDP-GalNAc hydrolysis, ± standard deviation): 3.09± 0.25 mM/(nmole*min); Km ([1]; Supplementary Table 2, GalNAc-T4 (0.06 µM), pH 6.5 cacodylate, 37 °C, 0.25 mM UDP-[3H]-GalNAc, ± standard deviation): 41 ± 18 µM; Catalytic efficiency (Vmax/Km) ([1]; Supplementary Table 2, errors estimated from the largest percent error of Vmax or Km): 75.2 ± 34 nmol/min |

From paper PMC5716993, “The interdomain flexible linker of the polypeptide GalNAc transferases dictates their long-range glycosylation preferences” (Nature Communications, 2017)
